In the supplement of paper PMC6315032:

How the values were obtained:
Assay in all cases: apparent dissociation constant (pKDapp, Kinobeads competition, Cheng-Prusoff corrected) (-log10 M); higher = tighter binding
CDC42BPB = CDC42BPB (UniProt Q9Y5S2); settings: affinity matrix / lysate: Kinobeads, mixed HEK293/K-562/placenta lysate
BMX = BMX (UniProt P51813); settings: affinity matrix / lysate: Kinobeads, mixed HEK293/K-562/placenta lysate
MAP2K2 = MAP2K2 (UniProt P36507); settings: affinity matrix / lysate: Kinobeads, mixed HEK293/K-562/placenta lysate
EPHA6 = EPHA6 (UniProt Q9UF33); settings: affinity matrix / lysate: Kinobeads, mixed HEK293/K-562/placenta lysate
PRKCQ = PRKCQ (UniProt Q04759); settings: affinity matrix / lysate: Kinobeads, mixed HEK293/K-562/placenta lysate
CDC2 = CDC2 (UniProt P06493); settings: affinity matrix / lysate: Kinobeads, mixed HEK293/K-562/placenta lysate
NEK1 = NEK1 (UniProt Q96PY6); settings: affinity matrix / lysate: Kinobeads, mixed HEK293/K-562/placenta lysate
NEK1, sequence (Q96PY6 whole entry): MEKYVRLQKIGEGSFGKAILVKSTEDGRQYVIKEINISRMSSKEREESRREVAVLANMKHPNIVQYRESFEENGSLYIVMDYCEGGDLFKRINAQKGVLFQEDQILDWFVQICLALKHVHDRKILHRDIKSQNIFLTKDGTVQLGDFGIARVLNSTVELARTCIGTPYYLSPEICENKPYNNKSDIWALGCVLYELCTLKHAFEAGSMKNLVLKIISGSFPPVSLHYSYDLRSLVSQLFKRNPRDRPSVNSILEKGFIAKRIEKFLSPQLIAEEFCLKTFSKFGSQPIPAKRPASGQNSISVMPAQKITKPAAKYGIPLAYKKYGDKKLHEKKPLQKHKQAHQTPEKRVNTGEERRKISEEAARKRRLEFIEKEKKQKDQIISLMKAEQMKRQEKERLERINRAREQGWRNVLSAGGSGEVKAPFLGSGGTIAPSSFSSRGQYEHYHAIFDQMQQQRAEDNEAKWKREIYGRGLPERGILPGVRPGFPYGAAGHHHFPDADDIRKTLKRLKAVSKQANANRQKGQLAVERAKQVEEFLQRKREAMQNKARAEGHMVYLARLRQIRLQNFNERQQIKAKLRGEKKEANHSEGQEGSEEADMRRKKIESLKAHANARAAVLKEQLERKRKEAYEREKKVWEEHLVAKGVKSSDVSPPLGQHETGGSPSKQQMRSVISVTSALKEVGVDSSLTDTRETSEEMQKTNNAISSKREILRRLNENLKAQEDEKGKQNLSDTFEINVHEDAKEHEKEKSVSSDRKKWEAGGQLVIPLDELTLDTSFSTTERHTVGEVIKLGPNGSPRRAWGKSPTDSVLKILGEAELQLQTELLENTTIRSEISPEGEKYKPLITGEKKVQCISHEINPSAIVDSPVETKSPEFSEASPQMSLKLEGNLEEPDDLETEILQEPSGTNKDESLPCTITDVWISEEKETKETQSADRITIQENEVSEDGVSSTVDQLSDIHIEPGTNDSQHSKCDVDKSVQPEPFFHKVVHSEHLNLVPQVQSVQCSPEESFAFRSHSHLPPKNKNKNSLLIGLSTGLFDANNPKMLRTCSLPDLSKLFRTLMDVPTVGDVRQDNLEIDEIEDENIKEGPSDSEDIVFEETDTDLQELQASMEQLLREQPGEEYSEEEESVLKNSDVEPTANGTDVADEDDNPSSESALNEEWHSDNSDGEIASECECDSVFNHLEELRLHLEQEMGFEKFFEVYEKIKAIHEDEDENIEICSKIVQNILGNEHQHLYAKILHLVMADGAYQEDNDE

FLT4 = FLT4 (UniProt P35916); settings: affinity matrix / lysate: Kinobeads, mixed HEK293/K-562/placenta lysate
HIPK1 = HIPK1 (UniProt Q86Z02); settings: affinity matrix / lysate: Kinobeads, mixed HEK293/K-562/placenta lysate
BMPR1B = BMPR1B (UniProt O00238); settings: affinity matrix / lysate: Kinobeads, mixed HEK293/K-562/placenta lysate
STK33 = STK33 (UniProt Q9BYT3); settings: affinity matrix / lysate: Kinobeads, mixed HEK293/K-562/placenta lysate
RPS6KA3 = RPS6KA3 (UniProt P51812); settings: affinity matrix / lysate: Kinobeads, mixed HEK293/K-562/placenta lysate
AKT1 = AKT1 (UniProt P31749); settings: affinity matrix / lysate: Kinobeads, mixed HEK293/K-562/placenta lysate
STK17B = STK17B (UniProt O94768); settings: affinity matrix / lysate: Kinobeads, mixed HEK293/K-562/placenta lysate
TAOK1 = TAOK1 (UniProt Q7L7X3); settings: affinity matrix / lysate: Kinobeads, mixed HEK293/K-562/placenta lysate
TESK1 = TESK1 (UniProt Q15569); settings: affinity matrix / lysate: Kinobeads, mixed HEK293/K-562/placenta lysate
LIMK2 = LIMK2 (UniProt P53671); settings: affinity matrix / lysate: Kinobeads, mixed HEK293/K-562/placenta lysate
LIMK1 = LIMK1 (UniProt P53667); settings: affinity matrix / lysate: Kinobeads, mixed HEK293/K-562/placenta lysate
LIMK1, sequence (P53667 whole entry, looked up): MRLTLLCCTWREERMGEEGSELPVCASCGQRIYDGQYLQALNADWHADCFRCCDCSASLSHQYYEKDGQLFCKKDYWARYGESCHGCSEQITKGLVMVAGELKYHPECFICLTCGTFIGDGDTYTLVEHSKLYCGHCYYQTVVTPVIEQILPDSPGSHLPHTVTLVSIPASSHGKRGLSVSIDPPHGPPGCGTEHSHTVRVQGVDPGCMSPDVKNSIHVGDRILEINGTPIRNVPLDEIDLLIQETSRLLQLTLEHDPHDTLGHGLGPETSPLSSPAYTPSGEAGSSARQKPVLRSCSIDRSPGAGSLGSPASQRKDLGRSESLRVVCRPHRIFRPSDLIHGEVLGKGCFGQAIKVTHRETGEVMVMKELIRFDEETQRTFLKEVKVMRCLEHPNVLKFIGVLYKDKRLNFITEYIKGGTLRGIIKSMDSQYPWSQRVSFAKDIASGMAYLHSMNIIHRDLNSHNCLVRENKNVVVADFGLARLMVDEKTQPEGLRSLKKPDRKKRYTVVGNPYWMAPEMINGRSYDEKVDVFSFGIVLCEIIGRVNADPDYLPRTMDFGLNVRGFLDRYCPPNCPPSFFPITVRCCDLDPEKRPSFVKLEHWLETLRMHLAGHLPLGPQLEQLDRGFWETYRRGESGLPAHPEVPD

MAPK11 = MAPK11 (UniProt Q15759); settings: affinity matrix / lysate: Kinobeads, mixed HEK293/K-562/placenta lysate
SYK = SYK (UniProt P43405); settings: affinity matrix / lysate: Kinobeads, mixed HEK293/K-562/placenta lysate
MAPK3 = MAPK3 (UniProt P27361); settings: affinity matrix / lysate: Kinobeads, mixed HEK293/K-562/placenta lysate
PRKCB = PRKCB (UniProt P05771); settings: affinity matrix / lysate: Kinobeads, mixed HEK293/K-562/placenta lysate
ADCK1 = ADCK1 (UniProt Q86TW2); settings: affinity matrix / lysate: Kinobeads, mixed HEK293/K-562/placenta lysate
ADCK1, sequence (Q86TW2 whole entry): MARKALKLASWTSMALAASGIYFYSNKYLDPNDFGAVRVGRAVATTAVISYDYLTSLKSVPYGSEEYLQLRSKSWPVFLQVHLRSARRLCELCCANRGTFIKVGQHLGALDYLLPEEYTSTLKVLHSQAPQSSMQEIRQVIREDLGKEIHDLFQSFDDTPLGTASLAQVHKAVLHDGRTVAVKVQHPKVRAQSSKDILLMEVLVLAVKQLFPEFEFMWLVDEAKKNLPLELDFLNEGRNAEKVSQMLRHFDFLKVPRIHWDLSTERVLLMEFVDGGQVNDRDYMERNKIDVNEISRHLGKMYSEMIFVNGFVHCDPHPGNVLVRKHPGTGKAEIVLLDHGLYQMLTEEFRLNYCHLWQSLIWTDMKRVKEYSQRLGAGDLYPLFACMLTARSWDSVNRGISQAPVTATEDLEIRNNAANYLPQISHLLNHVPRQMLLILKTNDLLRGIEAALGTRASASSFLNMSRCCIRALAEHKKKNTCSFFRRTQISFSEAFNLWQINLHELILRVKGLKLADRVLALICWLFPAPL

PIK3C2B = PIK3C2B (UniProt O00750)
PIK3C2B, sequence (O00750 whole entry): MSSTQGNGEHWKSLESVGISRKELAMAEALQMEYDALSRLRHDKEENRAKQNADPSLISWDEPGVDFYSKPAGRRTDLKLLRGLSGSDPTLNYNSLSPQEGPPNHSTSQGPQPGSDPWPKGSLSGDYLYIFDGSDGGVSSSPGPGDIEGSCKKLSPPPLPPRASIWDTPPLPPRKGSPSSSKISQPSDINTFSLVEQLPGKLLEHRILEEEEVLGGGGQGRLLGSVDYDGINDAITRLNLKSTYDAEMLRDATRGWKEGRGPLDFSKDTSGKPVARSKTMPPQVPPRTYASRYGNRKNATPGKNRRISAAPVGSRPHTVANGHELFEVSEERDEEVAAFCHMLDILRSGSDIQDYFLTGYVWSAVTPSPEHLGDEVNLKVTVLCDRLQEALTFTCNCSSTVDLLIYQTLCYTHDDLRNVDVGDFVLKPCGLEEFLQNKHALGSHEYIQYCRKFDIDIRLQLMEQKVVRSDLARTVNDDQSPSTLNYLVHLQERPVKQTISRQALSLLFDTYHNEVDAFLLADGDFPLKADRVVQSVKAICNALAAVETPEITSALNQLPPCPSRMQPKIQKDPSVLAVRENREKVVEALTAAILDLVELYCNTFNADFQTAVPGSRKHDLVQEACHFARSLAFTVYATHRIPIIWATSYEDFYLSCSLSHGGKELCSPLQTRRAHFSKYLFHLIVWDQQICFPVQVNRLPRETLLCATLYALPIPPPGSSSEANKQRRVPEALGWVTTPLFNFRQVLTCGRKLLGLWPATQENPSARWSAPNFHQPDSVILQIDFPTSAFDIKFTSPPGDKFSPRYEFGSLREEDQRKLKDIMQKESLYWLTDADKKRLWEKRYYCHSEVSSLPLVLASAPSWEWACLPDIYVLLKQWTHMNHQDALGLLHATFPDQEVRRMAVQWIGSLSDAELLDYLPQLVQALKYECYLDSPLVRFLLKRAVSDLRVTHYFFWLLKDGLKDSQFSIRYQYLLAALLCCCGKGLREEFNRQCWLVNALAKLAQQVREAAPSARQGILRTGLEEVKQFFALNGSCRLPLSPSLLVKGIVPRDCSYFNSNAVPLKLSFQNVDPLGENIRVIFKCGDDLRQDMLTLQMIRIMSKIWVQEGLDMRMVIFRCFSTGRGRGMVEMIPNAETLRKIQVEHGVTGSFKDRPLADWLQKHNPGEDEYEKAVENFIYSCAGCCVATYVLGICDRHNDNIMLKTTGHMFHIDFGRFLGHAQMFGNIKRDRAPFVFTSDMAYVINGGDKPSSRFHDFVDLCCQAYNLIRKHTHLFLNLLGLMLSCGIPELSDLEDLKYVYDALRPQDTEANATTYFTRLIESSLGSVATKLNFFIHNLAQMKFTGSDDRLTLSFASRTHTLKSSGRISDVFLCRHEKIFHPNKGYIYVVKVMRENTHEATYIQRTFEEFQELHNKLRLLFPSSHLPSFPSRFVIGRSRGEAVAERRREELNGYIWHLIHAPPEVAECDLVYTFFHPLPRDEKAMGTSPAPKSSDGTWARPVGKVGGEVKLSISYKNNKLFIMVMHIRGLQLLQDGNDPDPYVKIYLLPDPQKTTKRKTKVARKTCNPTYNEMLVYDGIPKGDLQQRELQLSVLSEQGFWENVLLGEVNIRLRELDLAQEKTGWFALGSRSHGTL

PDPK1 = PDPK1 (UniProt O15530); settings: affinity matrix / lysate: Kinobeads, mixed HEK293/K-562/placenta lysate
BRSK1 = BRSK1 (UniProt Q8TDC3); settings: affinity matrix / lysate: Kinobeads, mixed HEK293/K-562/placenta lysate
PIK3CA = PIK3CA (UniProt P42336); settings: affinity matrix / lysate: Lipid Kinobeads, mixed HeLa/Jurkat/K-562 lysate
BMP2K = BMP2K (UniProt Q9NSY1); settings: affinity matrix / lysate: Kinobeads, mixed HEK293/K-562/placenta lysate
MYLK = MYLK (UniProt Q15746); settings: affinity matrix / lysate: Kinobeads, mixed HEK293/K-562/placenta lysate
EPHB2 = EPHB2 (UniProt P29323); settings: affinity matrix / lysate: Kinobeads, mixed HEK293/K-562/placenta lysate
EPHB2, sequence (P29323 whole entry): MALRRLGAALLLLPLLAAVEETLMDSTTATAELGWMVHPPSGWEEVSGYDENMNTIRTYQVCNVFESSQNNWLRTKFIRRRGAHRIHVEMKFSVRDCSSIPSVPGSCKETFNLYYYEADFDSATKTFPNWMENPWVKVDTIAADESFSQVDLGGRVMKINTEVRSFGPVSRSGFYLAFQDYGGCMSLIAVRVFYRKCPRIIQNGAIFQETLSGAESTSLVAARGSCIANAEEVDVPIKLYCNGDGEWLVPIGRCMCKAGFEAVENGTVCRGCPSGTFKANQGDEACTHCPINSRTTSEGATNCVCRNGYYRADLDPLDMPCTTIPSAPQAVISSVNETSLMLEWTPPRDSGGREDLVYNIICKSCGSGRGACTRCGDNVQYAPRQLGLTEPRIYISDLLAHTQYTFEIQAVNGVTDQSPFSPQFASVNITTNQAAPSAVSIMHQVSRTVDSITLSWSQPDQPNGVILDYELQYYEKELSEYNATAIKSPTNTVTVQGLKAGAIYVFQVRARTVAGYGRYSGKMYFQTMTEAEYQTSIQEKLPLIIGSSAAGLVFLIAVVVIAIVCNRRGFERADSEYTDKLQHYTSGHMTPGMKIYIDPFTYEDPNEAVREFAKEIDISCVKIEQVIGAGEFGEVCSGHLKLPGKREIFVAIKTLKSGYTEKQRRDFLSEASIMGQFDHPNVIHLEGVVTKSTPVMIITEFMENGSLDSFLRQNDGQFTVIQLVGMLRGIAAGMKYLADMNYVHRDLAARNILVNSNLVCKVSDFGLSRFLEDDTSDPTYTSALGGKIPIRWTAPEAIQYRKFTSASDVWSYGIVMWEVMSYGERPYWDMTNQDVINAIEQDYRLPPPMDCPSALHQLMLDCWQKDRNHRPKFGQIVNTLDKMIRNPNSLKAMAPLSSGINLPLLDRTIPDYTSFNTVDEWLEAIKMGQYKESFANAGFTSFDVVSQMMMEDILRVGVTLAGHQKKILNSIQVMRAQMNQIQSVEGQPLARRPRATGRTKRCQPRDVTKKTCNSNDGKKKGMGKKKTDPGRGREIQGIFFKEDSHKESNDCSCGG

RPS6KA4 = RPS6KA4 (UniProt O75676); settings: affinity matrix / lysate: Kinobeads, mixed HEK293/K-562/placenta lysate
MAST2 = MAST2 (UniProt Q6P0Q8); settings: affinity matrix / lysate: Kinobeads, mixed HEK293/K-562/placenta lysate
CAMK2B = CAMK2B (UniProt Q13554); settings: affinity matrix / lysate: Kinobeads, mixed HEK293/K-562/placenta lysate
[1] = affinity matrix / lysate: Lipid Kinobeads, mixed HeLa/Jurkat/K-562 lysate

SMILES	apparent dissociation constant (-log10 M) (CDC42BPB)	apparent dissociation constant (-log10 M) (BMX)	apparent dissociation constant (-log10 M) (MAP2K2)	apparent dissociation constant (-log10 M) (EPHA6)	apparent dissociation constant (-log10 M) (PRKCQ)	apparent dissociation constant (-log10 M) (CDC2)	apparent dissociation constant (-log10 M) (NEK1)	apparent dissociation constant (-log10 M) (FLT4)	apparent dissociation constant (-log10 M) (HIPK1)	apparent dissociation constant (-log10 M) (BMPR1B)	apparent dissociation constant (-log10 M) (STK33)	apparent dissociation constant (-log10 M) (RPS6KA3)	apparent dissociation constant (-log10 M) (AKT1)	apparent dissociation constant (-log10 M) (STK17B)	apparent dissociation constant (-log10 M) (TAOK1)	apparent dissociation constant (-log10 M) (TESK1)	apparent dissociation constant (-log10 M) (LIMK2)	apparent dissociation constant (-log10 M) (LIMK1)	apparent dissociation constant (-log10 M) (MAPK11)	apparent dissociation constant (-log10 M) (SYK)	apparent dissociation constant (-log10 M) (MAPK3)	apparent dissociation constant (-log10 M) (PRKCB)	apparent dissociation constant (-log10 M) (ADCK1)	apparent dissociation constant (-log10 M) (PIK3C2B; [1])	apparent dissociation constant (-log10 M) (PDPK1)	apparent dissociation constant (-log10 M) (BRSK1)	apparent dissociation constant (-log10 M) (PIK3CA)	apparent dissociation constant (-log10 M) (BMP2K)	apparent dissociation constant (-log10 M) (MYLK)	apparent dissociation constant (-log10 M) (EPHB2)	apparent dissociation constant (-log10 M) (RPS6KA4)	apparent dissociation constant (-log10 M) (MAST2)	apparent dissociation constant (-log10 M) (CAMK2B)	apparent dissociation constant (-log10 M) (PIK3C2B; affinity matrix / lysate: Kinobeads, mixed HEK293/K-562/placenta lysate)
COc1ccc(-c2ccc3c(N4CCOC[C@@H]4C)nc(N4CCOC[C@@H]4C)nc3n2)cc1CO [AZD8055]	< 6	< 6	< 6	< 6	< 6	< 6	< 6	< 6	< 6	< 6	< 6	< 6	< 6	< 6	< 6	< 6	< 6	< 6	< 6	< 6	< 6	< 6	< 6	< 6	< 6	< 6	7.17	< 6	< 6	< 6	< 6	< 6	< 6	–
CCNC(=O)Nc1ccc(-c2nc(N3CCOC[C@@H]3C)c3c(n2)C(C)(C)S(=O)(=O)C3)cc1 [CZ415]	< 6	< 6	< 6	< 6	< 6	< 6	< 6	< 6	< 6	< 6	< 6	< 6	< 6	< 6	< 6	< 6	< 6	< 6	< 6	< 6	< 6	< 6	< 6	< 6	< 6	< 6	< 6	< 6	< 6	< 6	< 6	< 6	< 6	< 6
